Results published in patent publication EP4610270A1, “NOVEL ANTIMICROBIAL PEPTIDE AND PHARMACEUTICAL COMPOSITION THEREOF” (Qingdao Sensheng Biopharmaceutical Technology Co., Ltd, priority 2022, dated 2024).

Key:
[1] = test system: Human red blood cells (RBC); format: cell-based
Experimental: Human red blood cells (RBC) were used to detect the hemolytic activity of Ac-SH-17. All subjects provided written informed consent. The obtained healthy human blood was placed in an EDTA anticoagulant tube. Red blood cells were collected by centrifugation and suspended in PBS to a concentration of 4% (v/v). An equal portion of 200 µl red blood cell suspension was mixed with 200 µl of Ac-SH-17 solution at different concentrations (12.5, 25, 50, 100, and 200 µg/ml). After incubation at 37°C, the mixture was centrifuged […], and the supernatant was collected and added to a 96-well plate. Red blood cells incubated with PBS, BSA solution (100 µg/ml), or 0.1% Triton X-100 solution were used as blank control, negative control, and positive control, respectively. The absorbance was measured at 540 nm using a microplate reader. Three parallel samples were set up for each experiment, and the experiment was repeated at least three times. The results were analyzed for significant differences by a two-way ANOVA method, with p<0.05 indicating significant differences. Table 3.1 Hemolysis analysis

[2] = test system: RAW264.7 mouse macrophage cell line; assay: Anti-inflammatory experiment: NO release after LPS stimulation (Griess); format: cell-based; details: antimicrobial peptide 80 µM; 1 µg/ml LPS stimulation; FIG. 4
From the text: NO is a diffusible and membrane permeable small molecule obtained during the oxidation of L-arginine by NOS. NO was associated with many physiological reactions in organisms. […] But at low concentrations, NO could act as a signal to positively and negatively regulate innate and acquired immunity. Thus, by detecting the concentration of NO released by cells, the inflammatory response of cells could be detected.
The RAW264.7 mouse macrophage cell line was used as the experimental material and cultured in a DMEM high glucose medium containing FBS (10%) and penicillin-streptomycin dual antibody (100 U/ml). The RAW264.7 mouse macrophage cell line was used for experiments when the cell state was stable, the shape was full, and the edges were transparent.
• 1. The culture medium was removed from the cells and gently purged twice with PBS at room temperature to remove excess culture medium. After digestion with 0.25% trypsin for 3 min, the culture bottle was gently tapped to induce cell detachment, and then the culture medium was added to terminate digestion. The culture bottle was repeatedly blown and beaten to make the cells uniform. • 2. […]
4.2 In this experiment, NO was detected by the method provided in the total nitric oxide content determination kit, and improvements were made. […]

[3] = Antisepsis experiment: survival in fecal homogenate sepsis model; format: in vivo, SD rats; details: intraperitoneal 0.5 ml of 80 µM; within 24 h; compared to the model group; FIG. 5
Experimental: Sepsis refers to a systemic inflammatory response syndrome caused by infectious factors. A rat model of intestinal sepsis was established by injecting rat fecal homogenate into the abdominal cavity of model rats, followed by intraperitoneal injection of antimicrobial peptides to observe the survival rate of mice within 10-48 h, in order to evaluate the therapeutic effect of antimicrobial peptides on sepsis in mice.
60 SD rats were randomly divided into 6 groups by a random number table method, i.e., model group 1, model group 2, model group 3, model group 4, model group 5, and blank group, with 10 rats in each group. These 6 groups of rats were weighed and numbered in sequence.
After 1 week of adaptive feeding, fresh formed feces were collected from these 60 SD rats. After weighing the rat feces, an appropriate amount of physiological saline was added to it, and then the mixture was placed in a homogenizer for thorough grinding to prepare a rat feces homogenate at the concentration of 10%. The rat fecal homogenate was centrifuged at 3000 rpm for 5 min to obtain the supernatant, and then a syringe was used to suck out an appropriate amount of the supernatant for later use.
Before modeling, rats in model groups 1-5 were fasted for 12 hours, and then a 10% concentration of rat feces homogenate supernatant was injected intraperitoneally at a dose of 1 ml/200 g. […]

[4] = test system: Staphylococcus aureus 25923 (ATCC 25923, S. aureus 25923); assay: Antimicrobial activity by liquid antimicrobial / turbidimetric method (OD540, microplate reader); format: cell-based; details: S. aureus drug sensitive strain; FIG. 2
Experimental: (§1) The materials of Gram negative bacteria and Gram positive bacteria used in the embodiments of the present disclosure include Gram negative bacteria Escherichia coli strain Escherichia coli 25922 (ATCC 25922, E. coli 25922) and Gram positive bacteria Staphylococcus aureus strain Staphylococcus aureus 25923 (ATCC 25923, S. aureus 25923). […] 100 µl of the sample was immediately taken and placed in a microplate reader to measure its OD540, which was recorded as OD 0h. Then the sample was placed in a 37°C constant temperature incubator for cultivation, 100 µl of the sample was taken every 1 h, and the OD540 of each centrifuge tube was measured. Based on the changes in absorbance, the growth of bacteria could be determined, and the antimicrobial activity and minimum inhibitory concentration (MIC) of the polypeptide could be determined. […] 100 µl of the sample was immediately taken and placed in a microplate reader to measure its OD540, which was record as OD 0h. Then the sample was placed in a 37°C constant temperature incubator for cultivation, 100 µl of the sample was taken every 1 h, and the OD540 of each centrifuge tube was measured once.

[5] = test system: Escherichia coli 25922 (ATCC 25922, E. coli 25922); assay: as above; format: cell-based; details: E. coli drug sensitive strain; FIG. 1
Experimental: as §1

Question: Which “OD Value” [1] does the source give for “Ac-SRMKKWAKIIEKWRKWH-NH2 [Ac-SH-17, Ac-SRMKKWAKIIEKWRKWH-NH2]” here?
Answer: 0.061±0.013

Question: What about the hemolytic effect [1] of the same substance?
Answer: does not have significant hemolytic effect

Question: What about the “Hemolysis Ratio (%)” value ([1]; red cells of human) of the same substance?
Answer: 4.40%

Question: What about the “inhibition of the release of NO” value [2] of the same substance?
Answer: significantly inhibited the release of NO

Question: And the “release concentration of NO” value [2]?
Answer: substantially the same as that of the blank control

Question: What about the survival rate [3] of the same substance?
Answer: significantly improved the survival rate

Question: What about the antimicrobial activity [4] of the same substance?
Answer: exhibited antimicrobial activity

Question: What about the antimicrobial activity [5] of the same substance?
Answer: exhibited antimicrobial activity
